From patent US20070219220A1, “Pyrazolopyrimidinethione Derivatives, Salts and Solvates Thereof, Preparation Methods and Use Thereof” (priority 2003, published 2007)

System: anesthetized dogs
Experiment: Blood pressure, heart rate and respiration of anesthetized dogs (Example 11)
Format: in vivo
Settings: oral 40 mg/kg; in 3 hours after administration
Description: Methods: eight healthy male dogs with the body weight ranging from 12-15 kg were used. The dogs were anesthetized with 30 mg/kg of sodium pentobarbital. The femoral artery was dissected and inserted with a blood pressure transducer to record the blood pressure. The limbs were pierced with electrodes for recording the electrocardiogram. The respiration belt was wrapped around their chest and the respiration rate was recorded. The apparatus used was RM-6000 Polygraph system (NIHON KOHDEN, Japan). The changes in the arterial blood pressure, the heart rate, and the respiration were observed after the test compound was introduced into the stomach of the anesthetized dogs via 14# catheter.

For `CCCc1nn(C)c2c(=S)[nH]c(-c3cc(S(=O)(=O)N4C[C@@H](C)N[C@@H](C)C4)ccc3OCC)nc12` [Compound (2), 5-[2-ethoxy-5-(cis-3,5-dimethylpiperazin-1-sulfonyl)phenyl]-1-methyl-3-n-propyl-1,6-dihydro-7H-pyrazolo[4,3-d]pyrimidin-7-thione], the “arterial blood pressure (systolic and diastolic), heart rate and respiration (frequency and depth), in words” value was “did not experience an evident change”.
